Results on 22 molecules are retold here after patent US20100286145A1, “ISOPHTHALAMIDE DERIVATIVES INHIBITING BETA-SECRETASE ACTIVITY” (CoMentis, Inc., priority 2007, published 2010).

Like-named read-outs stand apart in the source and are kept apart here. Where only a bound is given, the exact number is not on record here.

The target in one test is memapsin 2 (Homo sapiens, UniProt P56817). The test is described as follows: Inhibition of memapsin 2 beta-secretase activity (fluorogenic substrate FS-2). It counts as biochemical. The conditions noted are these: memapsin 2, pH 4, 37° C., read-out: M2Ki. In a few lines: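 Kinetic fluorogenic assay: hydrolysis of the MCA/DNP-labelled APP Swedish-variant peptide FS-2 monitored as fluorescence rise at 37° C, pH 4, after 20 min enzyme–compound preincubation. Relative rates fitted with a tight-binding inhibitor model.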

The test system of test [1] is Aβ production in Chinese hamster ovary cells that over-express human APP695 with the London and Swedish mutations. As to the kind of experiment: Cellular Aβ IC50 determination (Aβ40 sandwich ELISA). As to conditions: cellular Aβ production, read-out: IC50. The class given is cell-based. As to the method: The potency of compounds against memapsin 2 activity was determined in a cellular assay of Aβ production. […] Chinese hamster ovary cells that over-express human APP695 with the London and Swedish mutations were seeded in multi-well plates at 10% confluency. Compounds are dissolved in DMSO to concentrations near 1 mM, and diluted into culture media to a final concentration near 4 μM (final 0.4% DMSO). […] Aliquots were removed and assayed for Aβ40 content using a sandwich ELISA (BioSource International). Amount of Aβ40 over the range of concentration of compounds, relative to control incubations, were fit to a 4-parameter IC50 model.

Chain of memapsin 2 (P56817 46-501): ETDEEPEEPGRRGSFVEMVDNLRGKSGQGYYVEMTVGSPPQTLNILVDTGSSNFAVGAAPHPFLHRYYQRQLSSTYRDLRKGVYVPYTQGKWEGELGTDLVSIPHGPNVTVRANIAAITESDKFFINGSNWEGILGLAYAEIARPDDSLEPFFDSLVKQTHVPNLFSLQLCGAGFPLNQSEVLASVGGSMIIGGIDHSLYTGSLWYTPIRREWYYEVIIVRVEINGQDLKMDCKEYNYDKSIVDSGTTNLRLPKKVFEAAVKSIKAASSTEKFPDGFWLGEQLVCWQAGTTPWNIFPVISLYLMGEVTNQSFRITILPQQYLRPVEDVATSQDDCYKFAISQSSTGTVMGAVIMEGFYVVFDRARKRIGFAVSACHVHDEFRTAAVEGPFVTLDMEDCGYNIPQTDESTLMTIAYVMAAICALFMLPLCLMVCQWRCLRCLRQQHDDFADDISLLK

Take `COc1cccc(CN(C)C[C@@H](O)[C@H](Cc2ccccc2)NC(=O)c2cccc(C(=O)N(C)Cc3nc(C)cs3)c2)c1` [Compound 1, N^1-((2S,3R)-3-hydroxy-4-((3-methoxybenzyl)(methyl)amino)-1-phenylbutan-2-yl)-N^3-methyl-N^3-((4-methylthiazol-2-yl)methyl)isophthalamide]: the Ki on memapsin 2 (20 minutes pre-incubation) is less than 300 nM. Besides, the 50% inhibitory concentration (IC50) in test [1] was less than 1000 nM.

Regarding `COc1cccc(CNC[C@@H](O)[C@H](Cc2ccccc2)NC(=O)c2cc(C(=O)N(C)Cc3nc(C)cs3)cc(C(C)(C)C)c2)c1` [Compound 2, 5-tert-butyl-N1-((2S,3R)-3-hydroxy-4-(3-methoxybenzylamino)-1-phenylbutan-2-yl)-N3-methyl-N3-((4-methylthiazol-2-yl)methyl)isophthalamide], the Ki on memapsin 2 (20 minutes pre-incubation) is less than 300 nM. For the same molecule, the IC50 in test [1] (Cricetulus griseus) is less than 1000 nM.

For the molecule `COc1cccc(CNC[C@@H](O)[C@H](Cc2ccccc2)NC(=O)c2cc(F)cc(C(=O)N(C)Cc3nc(C)cs3)c2)c1` [Compound 4, 5-fluoro-N1-((2S,3R)-3-hydroxy-4-(3-methoxybenzylamino)-1-phenylbutan-2-yl)-N3-methyl-N3-((4-methylthiazol-2-yl)methyl)isophthalamide], the Ki at memapsin 2 (20 minutes pre-incubation) is less than 300 nM. Besides, the IC50 in test [1] (Cricetulus griseus) is less than 1000 nM.

On to `Cc1csc(CN(C)C(=O)c2cc(C(=O)N[C@@H](Cc3ccccc3)[C@H](O)CNCc3cncc(C(C)C)c3)cc(-c3ccoc3)c2)n1` [Compound 303, 5-(furan-3-yl)-N1-((2S,3R)-3-hydroxy-4-((5-isopropylpyridin-3-yl)methylamino)-1-phenylbutan-2-yl)-N3-methyl-N3-((4-methylthiazol-2-yl)methyl)isophthalamide], for which, at memapsin 2 (fluorogenic substrate FS-2), the Ki was less than 300 nM.

For `Cc1csc(CN(C)C(=O)c2cccc(C(=O)N[C@@H](Cc3ccccc3)[C@H](O)CNCc3cncc(NC(C)C)c3)c2)n1` [Compound 304, N1-((2S,3R)-3-hydroxy-4-((5-(isopropylamino)pyridin-3-yl)methylamino)-1-phenylbutan-2-yl)-N3-methyl-N3-((4-methylthiazol-2-yl)methyl)isophthalamide], the Ki at memapsin 2 (fluorogenic substrate FS-2) was less than 300 nM.

With `Cc1csc(CN(C)C(=O)c2cc(C(=O)N[C@@H](Cc3ccccc3)[C@H](O)CNCc3cccc(C(F)(F)F)c3)cc(-c3ccco3)c2)n1` [Compound 305, 5-(furan-2-yl)-N1-((2S,3R)-3-hydroxy-1-phenyl-4-(3-(trifluoromethyl)benzylamino)butan-2-yl)-N3-methyl-N3-((4-methylthiazol-2-yl)methyl)isophthalamide], on memapsin 2 (fluorogenic substrate FS-2), the Ki is less than 300 nM.

On to `COc1cccc(CNC[C@@H](O)[C@H](Cc2cc(F)cc(F)c2)NC(=O)c2cc(C(C)=O)cc(C(=O)N[C@H](C)c3ccccc3)c2)c1` [Compound 306, 5-acetyl-N1-((2S,3R)-1-(3,5-difluorophenyl)-3-hydroxy-4-(3-methoxybenzylamino)butan-2-yl)-N3-((R)-1-phenylethyl)isophthalamide], for which, on memapsin 2 (fluorogenic substrate FS-2), the Ki was less than 300 nM.

In the case of `COc1cccc(CNC[C@@H](O)[C@H](Cc2ccccc2)NC(=O)c2cc(C(=O)N(C)Cc3nc(C)cs3)cc(C3CCC(O)C3)c2)c1` (stereo partly drawn) [Compound 307, N1-((2S,3R)-3-hydroxy-4-(3-methoxybenzylamino)-1-phenylbutan-2-yl)-5-(3-hydroxycyclopentyl)-N3-methyl-N3-((4-methylthiazol-2-yl)methyl)isophthalamide], at memapsin 2 (fluorogenic substrate FS-2), the Ki was more than 501 nM.

In the case of `CC(=O)c1cc(C(=O)N[C@@H](Cc2ccccc2)[C@H](O)CNCc2cncc(C(C)C)c2)cc(C(=O)N[C@H](C)c2ccccc2)c1` [Compound 308, 5-acetyl-N1-((2S,3R)-3-hydroxy-4-((5-isopropylpyridin-3-yl)methylamino)-1-phenylbutan-2-yl)-N3-((R)-1-phenylethyl)isophthalamide], the Ki on memapsin 2 (fluorogenic substrate FS-2) was less than 300 nM.

With `COc1cccc(S(=O)(=O)NC[C@@H](O)[C@H](Cc2ccccc2)NC(=O)c2cccc(C(=O)N(C)Cc3nc(C)cs3)c2)c1` [Compound 309, N1-((2S,3R)-3-hydroxy-4-(3-methoxyphenylsulfonamido)-1-phenylbutan-2-yl)-N3-methyl-N3-((4-methylthiazol-2-yl)methyl)isophthalamide], the Ki at memapsin 2 (fluorogenic substrate FS-2) was more than 501 nM.

Turning to `Cc1csc(CN(C)C(=O)c2cccc(C(=O)N[C@@H](Cc3ccccc3)[C@H](O)CNS(=O)(=O)c3cccc(C(F)(F)F)c3)c2)n1` [Compound 310, N1-((2S,3R)-3-hydroxy-1-phenyl-4-(3-(trifluoromethyl)phenylsulfonamido)butan-2-yl)-N3-methyl-N3-((4-methylthiazol-2-yl)methyl)isophthalamide], on memapsin 2 (fluorogenic substrate FS-2), the Ki was more than 501 nM.

On to `Cc1csc(CN(C)C(=O)c2cccc(C(=O)N[C@@H](Cc3ccccc3)[C@H](O)CNCc3cc(OC(=O)CN(C)C)cc(C(C)C)c3)c2)n1` [Compound 311, 3-(((2R,3S)-2-hydroxy-3-(3-(methyl((4-methylthiazol-2-yl)methyl)carbamoyl)benzamido)-4-phenylbutylamino)methyl)-5-isopropylphenyl 2-(dimethylamino)acetate], for which, at memapsin 2 (fluorogenic substrate FS-2), the Ki is less than 300 nM.

For the molecule `Cc1csc(CN(C)C(=O)c2cccc(C(=O)N[C@@H](Cc3ccccc3)[C@H](O)CN(C)Cc3cncc(C(C)C)c3)c2)n1` [Compound 312, N1-((2S,3R)-3-hydroxy-4-(((5-isopropylpyridin-3-yl)methyl)(methyl)amino)-1-phenylbutan-2-yl)-N3-methyl-N3-((4-methylthiazol-2-yl)methyl)isophthalamide], the Ki on memapsin 2 (fluorogenic substrate FS-2) is more than 501 nM.

As for `Cc1csc(CN(C)C(=O)c2cccc(C(=O)N[C@@H](Cc3ccccc3)[C@H](O)CNCc3cncc(C(C)CO)c3)c2)n1` (stereo partly drawn) [Compound 313, N1-((2S,3R)-3-hydroxy-4-((5-(1-hydroxypropan-2-yl)pyridin-3-yl)methylamino)-1-phenylbutan-2-yl)-N3-methyl-N3-((4-methylthiazol-2-yl)methyl)isophthalamide], the Ki at memapsin 2 (fluorogenic substrate FS-2) was less than 300 nM.

As to `Cc1csc(CN(C)C(=O)c2cccc(C(=O)N[C@@H](Cc3ccccc3)[C@H](O)CNCc3cncc(C(C)CO)c3)c2)n1` (stereo partly drawn) [Compound 314, N1-((2S,3R)-3-hydroxy-4-((5-(1-hydroxypropan-2-yl)pyridin-3-yl)methylamino)-1-phenylbutan-2-yl)-N3-methyl-N3-((4-methylthiazol-2-yl)methyl)isophthalamide], the Ki on memapsin 2 (fluorogenic substrate FS-2) is less than 300 nM.

Regarding `CC(C)c1cncc(CNC[C@@H](O)[C@H](Cc2ccccc2)NC(=O)c2cccc(C(=O)N(C)Cc3nc(Br)cs3)c2)c1` [Compound 315, N1-((4-bromothiazol-2-yl)methyl)-N3-((2S,3R)-3-hydroxy-4-((5-isopropylpyridin-3-yl)methylamino)-1-phenylbutan-2-yl)-N1-methylisophthalamide], the Ki at memapsin 2 (fluorogenic substrate FS-2) was less than 300 nM.

Take `CC(C)c1cncc(CNC[C@@H](O)[C@H](Cc2ccccc2)NC(=O)c2cccc(C(=O)N(C)Cc3nc(CO)cs3)c2)c1` [Compound 316, N1-((2S,3R)-3-hydroxy-4-((5-isopropylpyridin-3-yl)methylamino)-1-phenylbutan-2-yl)-N3-((4-(hydroxymethyl)thiazol-2-yl)methyl)-N3-methylisophthalamide]: on memapsin 2 (fluorogenic substrate FS-2), the Ki was less than 300 nM.

In the case of `Cc1csc(CN(C)C(=O)c2cc(C(=O)N[C@@H](Cc3ccccc3)[C@H](O)CNCc3cccc(C(F)(F)F)c3)cc(-c3cccc(N(C)C(=O)OC(C)(C)C)c3)c2)n1` [Compound 317, tert-butyl 3′-((2S,3R)-3-hydroxy-1-phenyl-4-(3-(trifluoromethyl)benzylamino)butan-2-ylcarbamoyl)-5′-(methyl((4-methylthiazol-2-yl)methyl)carbamoyl)biphenyl-3-yl(methyl)carbamate], the Ki at memapsin 2 (fluorogenic substrate FS-2) is less than 300 nM.

Take `CC(C)c1cncc(CNC[C@@H](O)[C@H](Cc2ccccc2)NC(=O)c2cccc(C(=O)N(C)Cc3nccs3)c2)c1` [Compound 318, N1-((2S,3R)-3-hydroxy-4-((5-isopropylpyridin-3-yl)methylamino)-1-phenylbutan-2-yl)-N3-methyl-N3-(thiazol-2-ylmethyl)isophthalamide]: the Ki at memapsin 2 (fluorogenic substrate FS-2) is less than 300 nM.

As for `C=C(C)c1cncc(CNC[C@@H](O)[C@H](Cc2ccccc2)NC(=O)c2cccc(C(=O)N(C)Cc3nc(CO)cs3)c2)c1` [Compound 319, N1-((2S,3R)-3-hydroxy-1-phenyl-4-((5-(prop-1-en-2-yl)pyridin-3-yl)methylamino)butan-2-yl)-N3-((4-(hydroxymethyl)thiazol-2-yl)methyl)-N3-methylisophthalamide], the Ki at memapsin 2 (fluorogenic substrate FS-2) was less than 300 nM.

Take `CCn1cc(CNC[C@@H](O)[C@H](Cc2ccccc2)NC(=O)c2cccc(C(=O)N(C)Cc3nc(C)cs3)c2)cn1` [Compound 320, N1-((2S,3R)-4-((1-ethyl-1H-pyrazol-4-yl)methylamino)-3-hydroxy-1-phenylbutan-2-yl)-N3-methyl-N3-((4-methylthiazol-2-yl)methyl)isophthalamide]: the Ki on memapsin 2 (fluorogenic substrate FS-2) was less than 300 nM.

On to “N3-((2S,3R)-3-hydroxy-4-(3-methoxybenzylamino)-1-phenylbutan-2-yl)-N1,4-dimethyl-N1-((4-methylthiazol-2-yl)methyl)isophthalamide and N1-((2S,3R)-3-hydroxy-4-(3-methoxybenzylamino)-1-phenylbutan-2-yl)-N3,4-dimethyl-N3-((4-methylthiazol-2-yl)methyl)isophthalamide (regioisomeric mixture) [Compound 42]”, for which, on memapsin 2 (20 minutes pre-incubation), the Ki is more than 501 nM.
